According to patent publication US9833497B2, “Human originated EGF domain proteins and use of the same” (CHENGDU SOURCEBIO LIMITED-LIABILITY COMPANY, priority 2013, dated 2017):

What was measured:
Assay type in all cases: cell-based
[1] = test system: E. coli DH5α; assay: Antibacterial activity: MIC and growth curve against E. coli DH5α in 96-well plate; settings: minimal inhibitory concentration against E. coli DH5α; 96-well plate, 5×10^5 CFU/mL, 37° C., judged after 8 h
Procedure, shortened: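 MIC taken as lowest protein level with no bacterial growth, tracked by A600 every 30 min during 37 °C, 175 rpm culture. Two-fold protein series 50-12.5 μg/mL final, triplicate wells, against 5×10^5 CFU/mL of LB-washed mid-log cells.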

[2] = test system: E. coli BL21; assay: MIC against Gram-negative bacteria: E. coli BL21; settings: 5×10^5 CFU/mL
Procedure, shortened: (§1)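 Growth inhibition by human EGF domain proteins was scored in LB liquid culture seeded at 5×10^5 CFU/mL. Protein was applied as a two-fold dilution series in triplicate, with shaking incubation at 37° C; MIC is the lowest concentration giving no growth.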

[3] = test system: Pseudomonas aeruginosa; assay: MIC against Gram-negative bacteria: Pseudomonas aeruginosa; settings: 5×10^5 CFU/mL
Procedure, shortened: as §1

[4] = test system: Klebsiella pneumonia; assay: MIC against Gram-negative bacteria: Klebsiella pneumonia; settings: 5×10^5 CFU/mL
Procedure, shortened: as §1

[5] = test system: Enterobacter cloacae; assay: MIC against Gram-negative bacteria: Enterobacter cloacae; settings: 5×10^5 CFU/mL
Procedure, shortened: as §1

[6] = test system: Aeromonas hydrophila; assay: MIC against Gram-negative bacteria: Aeromonas hydrophila; settings: 5×10^5 CFU/mL
Procedure, shortened: as §1

[7] = test system: Citrobacter diversus; assay: MIC against Gram-negative bacteria: Citrobacter diversus; settings: 5×10^5 CFU/mL
Procedure, shortened: as §1

[8] = test system: Moraxella catarrhalis; assay: MIC against Gram-negative bacteria: Moraxella catarrhalis; settings: 5×10^5 CFU/mL
Procedure, shortened: as §1

[9] = test system: Proteus mirabilis; assay: MIC against Gram-negative bacteria: Proteus mirabilis; settings: 5×10^5 CFU/mL
Procedure, shortened: as §1

[10] = test system: Proteus vulgaris; assay: MIC against Gram-negative bacteria: Proteus vulgaris; settings: 5×10^5 CFU/mL
Procedure, shortened: as §1

[11] = test system: Serratia marcescens; assay: MIC against Gram-negative bacteria: Serratia marcescens; settings: 5×10^5 CFU/mL
Procedure, shortened: as §1

[12] = E. coli BL21, 96-well plate, 37° C., 10 h
[13] = Pseudomonas aeruginosa, 96-well plate, 37° C., 10 h
[14] = Klebsiella pneumonia, 96-well plate, 37° C., 10 h
[15] = Enterobacter cloacae, 96-well plate, 37° C., 10 h
[16] = Aeromonas hydrophila, 96-well plate, 37° C., 10 h
[17] = Citrobacter diversus, 96-well plate, 37° C., 10 h
[18] = Moraxella catarrhalis, 96-well plate, 37° C., 10 h
[19] = Proteus mirabilis, 96-well plate, 37° C., 10 h
[20] = Proteus vulgaris, 96-well plate, 37° C., 10 h
[21] = Serratia marcescens, 96-well plate, 37° C., 10 h

Substance: PRT205 (SAHVCSQQCSGHGVCDSRNKCHCSPGYKPPNCQ; listed as Homo sapiens)
- MIC [1]: 12.5 µg/mL
- MIC (μg/mL) E. coli BL21 ([2]; E. coli BL21, 10 h cultivation at 37° C.): 12.5 µg/mL
- MIC (μg/mL) P. aeruginosa ([3]; P. aeruginosa, 10 h cultivation at 37° C.): 12.5 µg/mL
- MIC (μg/mL) K. pneumonia ([4]; K. pneumonia, 10 h cultivation at 37° C.): 25 µg/mL
- MIC (μg/mL) E. cloacae ([5]; E. cloacae, 10 h cultivation at 37° C.): 12.5 µg/mL
- MIC (μg/mL) A. hydrophila ([6]; A. hydrophila, 10 h cultivation at 37° C.): 25 µg/mL
- MIC (μg/mL) C. diversus ([7]; C. diversus, 10 h cultivation at 37° C.): 12.5 µg/mL
- MIC (μg/mL) M. catarrhalis ([8]; M. catarrhalis, 10 h cultivation at 37° C.): 25 µg/mL
- MIC (μg/mL) P. mirabilis ([9]; P. mirabilis, 10 h cultivation at 37° C.): 12.5 µg/mL
- MIC (μg/mL) P. vulgaris ([10]; P. vulgaris, 10 h cultivation at 37° C.): 25 µg/mL
- MIC (μg/mL) S. marcescens ([11]; S. marcescens, 10 h cultivation at 37° C.): 12.5 µg/mL

Substance: PRT47 (CTCSGHANICHLHTGKCFCTTKGIKGDQCQLCDSENRYVGNPLRGTCYY; listed as Homo sapiens)
- MIC [1]: 12.5 µg/mL
- MIC (μg/mL) E. coli BL21 [2, 12]: 25 µg/mL
- MIC (μg/mL) P. aeruginosa [3, 13]: 12.5 µg/mL
- MIC (μg/mL) K. pneumonia [4, 14]: 12.5 µg/mL
- MIC (μg/mL) E. cloacae [5, 15]: 25 µg/mL
- MIC (μg/mL) A. hydrophila [6, 16]: 12.5 µg/mL
- MIC (μg/mL) C. diversus [7, 17]: 50 µg/mL
- MIC (μg/mL) M. catarrhalis [8, 18]: 12.5 µg/mL
- MIC (μg/mL) P. mirabilis [9, 19]: 25 µg/mL
- MIC (μg/mL) P. vulgaris [10, 20]: 50 µg/mL
- MIC (μg/mL) S. marcescens [11, 21]: 12.5 µg/mL

Substance: PRT653 (DVDECEDPQSSCLGGECKNTVGSYQCLCPQGFQLANGTVCE; listed as Homo sapiens)
- MIC [1]: 25 µg/mL
- MIC E. coli BL21 ([2]; 96-well plate, 37° C., 10 h): 12.5 µg/mL
- MIC P. aeruginosa ([3]; 96-well plate, 37° C., 10 h): 25 µg/mL
- MIC K. pneumonia ([4]; 96-well plate, 37° C., 10 h): 50 µg/mL
- MIC E. cloacae ([5]; 96-well plate, 37° C., 10 h): 25 µg/mL
- MIC A. hydrophila ([6]; 96-well plate, 37° C., 10 h): 12.5 µg/mL
- MIC C. diversus ([7]; 96-well plate, 37° C., 10 h): 50 µg/mL
- MIC M. catarrhalis ([8]; 96-well plate, 37° C., 10 h): 25 µg/mL
- MIC P. mirabilis ([9]; 96-well plate, 37° C., 10 h): 12.5 µg/mL
- MIC P. vulgaris ([10]; 96-well plate, 37° C., 10 h): 50 µg/mL
- MIC S. marcescens ([11]; 96-well plate, 37° C., 10 h): 25 µg/mL

Substance: PRT1222 (SVNYCECNPCFNGGSCQSGVDSYYCHCPFGVFGKHCE; listed as Homo sapiens)
- MIC [1]: 12.5 µg/mL
- MIC against E. coli BL21 [2, 12]: 25 µg/mL
- MIC against P. aeruginosa [3, 13]: 50 µg/mL
- MIC against K. pneumonia [4, 14]: 12.5 µg/mL
- MIC against E. cloacae [5, 15]: 25 µg/mL
- MIC against A. hydrophila [6, 16]: 50 µg/mL
- MIC against C. diversus [7, 17]: 12.5 µg/mL
- MIC against M. catarrhalis [8, 18]: 25 µg/mL
- MIC against P. mirabilis [9, 19]: 50 µg/mL
- MIC against P. vulgaris [10, 20]: 25 µg/mL
- MIC against S. marcescens [11, 21]: 12.5 µg/mL

Substance: PRT517 (CQCFGHAESCDDVTGECLNCKDHTGGPYCDKCLPGFYGEPTKGTSEDCQP; listed as Homo sapiens)
- MIC [1]: 25 µg/mL
- MIC against E. coli BL21 ([2]; 96-well plate, 37° C., 10 h): 12.5 µg/mL
- MIC against P. aeruginosa ([3]; 96-well plate, 37° C., 10 h): 25 µg/mL
- MIC against K. pneumonia ([4]; 96-well plate, 37° C., 10 h): 50 µg/mL
- MIC against E. cloacae ([5]; 96-well plate, 37° C., 10 h): 25 µg/mL
- MIC against A. hydrophila ([6]; 96-well plate, 37° C., 10 h): 12.5 µg/mL
- MIC against C. diversus ([7]; 96-well plate, 37° C., 10 h): 25 µg/mL
- MIC against M. catarrhalis ([8]; 96-well plate, 37° C., 10 h): 50 µg/mL
- MIC against P. mirabilis ([9]; 96-well plate, 37° C., 10 h): 25 µg/mL
- MIC against P. vulgaris ([10]; 96-well plate, 37° C., 10 h): 12.5 µg/mL
- MIC against S. marcescens ([11]; 96-well plate, 37° C., 10 h): 25 µg/mL

Substance: PRT1262 (DVDECSMSNGSCDQGCVNTKGSYECVCPPGRRLHWNGKDCV; listed as Homo sapiens)
- MIC [1]: 12.5 µg/mL
- MIC against E. coli BL21 [2, 12]: 25 µg/mL
- MIC against P. aeruginosa [3, 13]: 12.5 µg/mL
- MIC against K. pneumonia [4, 14]: 25 µg/mL
- MIC against E. cloacae [5, 15]: 12.5 µg/mL
- MIC against A. hydrophila [6, 16]: 50 µg/mL
- MIC against C. diversus [7, 17]: 12.5 µg/mL
- MIC against M. catarrhalis [8, 18]: 50 µg/mL
- MIC against P. mirabilis [9, 19]: 12.5 µg/mL
- MIC against P. vulgaris [10, 20]: 50 µg/mL
- MIC against S. marcescens [11, 21]: 25 µg/mL

Substance: PRT496 (CSCNNHSDTCDPNTGKCLNCGDNTAGDHCDVCTSGYYGKVTGSASDCAL; listed as Homo sapiens)
- MIC [1]: 12.5 µg/mL
- MIC against E. coli BL21 ([2]; 96-well plate, 37° C., 10 h): 12.5 µg/mL
- MIC against P. aeruginosa ([3]; 96-well plate, 37° C., 10 h): 50 µg/mL
- MIC against K. pneumonia ([4]; 96-well plate, 37° C., 10 h): 12.5 µg/mL
- MIC against E. cloacae ([5]; 96-well plate, 37° C., 10 h): 50 µg/mL
- MIC against A. hydrophila ([6]; 96-well plate, 37° C., 10 h): 12.5 µg/mL
- MIC against C. diversus ([7]; 96-well plate, 37° C., 10 h): 50 µg/mL
- MIC against M. catarrhalis ([8]; 96-well plate, 37° C., 10 h): 12.5 µg/mL
- MIC against P. mirabilis ([9]; 96-well plate, 37° C., 10 h): 25 µg/mL
- MIC against P. vulgaris ([10]; 96-well plate, 37° C., 10 h): 50 µg/mL
- MIC against S. marcescens ([11]; 96-well plate, 37° C., 10 h): 25 µg/mL
